Measurements from patent US20200164084A1, “ANTIBODY CONJUGATES COMPRISING TOLL-LIKE RECEPTOR AGONIST AND COMBINATION THERAPIES” (NOVARTIS AG, priority 2017, published 2020).

Assays:
[1] = In vitro stability of conjugates in mouse serum (deconjugation and succinimide ring hydrolysis by LC-MS); type: in vitro ADME; settings: anti-HER2 mAb2 conjugates, 37° C.
Description: The stability of the bond formed between maleimide containing payloads and Cys residues of the antibody is enhanced by the hydrolysis of the succinimide ring formed in this reaction. The effects of succinimide ring hydrolysis on the stability of antibody conjugates prepared with agonist compounds of the invention were studied after in vitro incubation in mouse serum. Mass changes resulting from payload deconjugation and the hydrolysis of the succinimide ring of maleimide payloads conjugated to antibodies were monitored by LC-MS. The hydrolysis of the succinimide ring has been reported to be stimulated by certain conditions such as high pH, high temperature, or high salts (J. Am. Chem. Soc. 1955, 77: 3922; Biochemistry 1976, 15: 2836; Biochem. J. 1979, 179: 191-197; J Pharm Sci. 1984, 73:1767-1771; Bioorg. Med. Chem. Lett. 17: 6286-6289, 2007). To probe the in vitro stability of conjugates, anti-HER2 antibody mAb2 conjugates were incubated at 37° C. in 50-70% mouse serum. […] The light chain, heavy chain Fab, and heavy chain Fc fragments were then analyzed by ESI-MS. The relative populations of deconjugated antibody, conjugates with attached payload with hydrolyzed succinimide ring, and conjugates with attached payload with intact succinimide ring, were calculated from the relative MS intensities of the corresponding conjugate species. […]

human TLR7 = target: T1, human TLR7 (Homo sapiens, UniProt Q9NYK1); assay: TLR7 reporter gene assay (HEK293, NF-kB-driven luciferase); type: cell-based; settings: HEK293 cells stably transfected with human TLR7 and NF-kB-driven luciferase reporter
T1 construct: expressed in transfected cells; host or cells: HEK293
T1 sequence (Q9NYK1 27-1049): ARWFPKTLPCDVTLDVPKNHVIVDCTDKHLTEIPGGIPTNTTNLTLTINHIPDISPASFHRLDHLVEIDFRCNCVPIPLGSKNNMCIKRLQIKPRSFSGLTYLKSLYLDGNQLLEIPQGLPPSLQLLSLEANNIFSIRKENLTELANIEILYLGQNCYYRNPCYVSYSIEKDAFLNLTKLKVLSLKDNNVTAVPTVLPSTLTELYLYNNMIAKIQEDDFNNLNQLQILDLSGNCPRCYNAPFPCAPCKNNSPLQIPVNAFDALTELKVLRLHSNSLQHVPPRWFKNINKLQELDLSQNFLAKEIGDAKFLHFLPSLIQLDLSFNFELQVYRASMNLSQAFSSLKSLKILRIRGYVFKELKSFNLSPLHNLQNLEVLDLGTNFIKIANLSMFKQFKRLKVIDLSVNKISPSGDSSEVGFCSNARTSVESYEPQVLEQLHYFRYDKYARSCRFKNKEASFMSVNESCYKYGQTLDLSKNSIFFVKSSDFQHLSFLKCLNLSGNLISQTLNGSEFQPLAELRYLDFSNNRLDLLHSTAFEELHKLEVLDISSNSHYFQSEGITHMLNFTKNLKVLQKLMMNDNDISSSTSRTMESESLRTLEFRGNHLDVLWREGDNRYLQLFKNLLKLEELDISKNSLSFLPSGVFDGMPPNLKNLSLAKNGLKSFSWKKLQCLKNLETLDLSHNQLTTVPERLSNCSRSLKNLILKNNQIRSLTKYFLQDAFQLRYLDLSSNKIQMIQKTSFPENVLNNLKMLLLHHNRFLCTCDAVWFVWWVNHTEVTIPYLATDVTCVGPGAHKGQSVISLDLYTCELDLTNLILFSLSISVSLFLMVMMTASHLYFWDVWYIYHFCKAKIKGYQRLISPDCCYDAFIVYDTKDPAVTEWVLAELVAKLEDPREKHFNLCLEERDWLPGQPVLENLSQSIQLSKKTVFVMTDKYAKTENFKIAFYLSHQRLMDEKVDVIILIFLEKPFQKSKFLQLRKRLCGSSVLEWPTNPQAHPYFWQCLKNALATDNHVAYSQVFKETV
Description: Compounds of Formula (I) were assayed to measure their activity as toll-like receptor 7 agonists.
As a control assay, normal HEK293 transfected with pNifty-Luc were used. […] Bright-Glo™ Luciferase assay buffer and substrate were supplied by Promega # E263B and # E264B (assay substrate and buffer respectively). 384 well clear-bottom plates were supplied by Greiner bio-one (#789163-G) and were custom bar-coded plates.
Cells were plated at 25,000 cells/well in 384-well plates in a final volume of 50 μl of media. Cells were allowed to adhere to the plates after overnight (18 hours) culture at 37° C. and 5% CO2. Serially diluted experimental and positive control compounds were then dispensed to each well and incubated for 7 hours at 37° C. and 5% CO2. Cells stimulated with DMSO alone also serve as negative controls. After the incubation, 30 μl of the pre-mix assay buffer and substrate buffer were added to each well according to manufacturer's instructions. The luminescence signal was read on a CLIPR machine with an integration time of 20 seconds per plate.

Row | conjugate stability (deconjugation through reverse maleimide reaction, succinimide ring hydrolysis) [1] | SMILES | EC50 (human TLR7)
1 | improved conjugate stability | CCCCCNc1nc(N)nc2ccn(Cc3ccc(CN4CCN(CCN5C(=O)C=CC5=O)CC4)cc3OC)c12 [Compound C-5, 1-(2-(4-(4-((2-amino-4-(pentylamino)-5H-pyrrolo[3,2-d]pyrimidin-5-yl)methyl)-3-methoxybenzyl)piperazin-1-yl)ethyl)-1H-pyrrole-2,5-dione] | –
2 | improved conjugate stability | CCCCCNc1nc(N)nc2ccn(Cc3ccc(CN4CCN(C(=O)CCOCCOCCNC(=O)CN5C(=O)C=CC5=O)CC4)cc3OC)c12 [Compound C-21, N-(2-(2-(3-(4-(4-((2-amino-4-(pentylamino)-5H-pyrrolo[3,2-d]pyrimidin-5-yl)methyl)-3-methoxybenzyl)piperazin-1-yl)-3-oxopropoxy)ethoxy)ethyl)-2-(2,5-dioxo-2,5-dihydro-1H-pyrrol-1-yl)acetamide] | –
3 | – | CCCC[C@@H](CO)Nc1nc(N)nc2ccn(Cc3cc(CN4CCN(C(=O)CCCC(=O)NCCCC[C@H](N)C(=O)O)CC4)ccc3OC)c12 [Compound C-48, (S)-2-amino-6-(5-(4-(3-((2-amino-4-(((S)-1-hydroxyhexan-2-yl)amino)-5H-pyrrolo[3,2-d]pyrimidin-5-yl)methyl)-4-methoxybenzyl)piperazin-1-yl)-5-oxopentanamido)hexanoic acid] | 1900 nM
4 | – | CCCCCNc1nc(N)nc2ccn(Cc3ccc(CN4CCN(CCO)CC4)cc3OC)c12 [Compound C-68, 2-(4-(4-((2-amino-4-(pentylamino)-5H-pyrrolo[3,2-d]pyrimidin-5-yl)methyl)-3-methoxybenzyl)piperazin-1-yl)ethan-1-ol] | < 1 nM
